In brackets after ≈: the same amount, converted by molar mass.
Legend:
Candida albicans [1] = test: Antifungal activity against Candida albicans after 48 hrs by broth dilution technique; assay type: functional
Talaromyces marneffei [2] = test: Antifungal activity against Penicillium marneffei after 3 to 4 days by disc diffusion method; assay type: functional
Staphylococcus aureus [3] = test: Antibacterial activity against Staphylococcus aureus ATCC 25923 after 24 hrs by broth dilution technique; assay type: functional; conditions: ATCC-25923, 24 h
[4] = system: Trichophyton mentagrophytes; test: Antifungal activity against Trichophyton mentagrophytes after 48 hrs by broth dilution technique; assay type: functional
Candida albicans [5] = test: Antifungal activity against Candida albicans after 3 to 4 days by disc diffusion method; assay type: functional
Aspergillus fumigatus [6] = test: Antifungal activity against Aspergillus fumigatus after 48 hrs by broth dilution technique; assay type: functional
Escherichia coli [7] = test: Antibacterial activity against Escherichia coli ATCC 25922 after 24 hrs by disc diffusion method; assay type: functional
Aspergillus fumigatus [8] = test: Antifungal activity against Aspergillus fumigatus after 3 to 4 days by disc diffusion method; assay type: functional
Pseudomonas aeruginosa [9] = test: Antibacterial activity against Pseudomonas aeruginosa ATCC 27853 after 24 hrs by broth dilution technique; conditions: ATCC-27853, 24 h
[10] = system: Trichophyton mentagrophytes; test: Antifungal activity against Trichophyton mentagrophytes after 3 to 4 days by disc diffusion method; assay type: functional
Talaromyces marneffei [11] = test: Antifungal activity against Penicillium marneffei after 48 hrs by broth dilution technique; assay type: functional
Klebsiella pneumoniae [12] = test: Antibacterial activity against Klebsiella pneumoniae clinical isolate after 24 hrs by broth dilution technique; assay type: functional
Streptococcus pyogenes [13] = test: Antibacterial activity against Streptococcus pyogenes clinical isolate after 24 hrs by broth dilution technique; assay type: functional
Streptococcus pyogenes [14] = test: Antibacterial activity against Streptococcus pyogenes clinical isolate after 24 hrs by disc diffusion method; assay type: functional
Staphylococcus aureus [15] = test: Antibacterial activity against Staphylococcus aureus ATCC 25923 after 24 hrs by disc diffusion method; assay type: functional
Pseudomonas aeruginosa [16] = test: Antibacterial activity against Pseudomonas aeruginosa ATCC 27853 after 24 hrs by disc diffusion method
Klebsiella pneumoniae [17] = test: Antibacterial activity against Klebsiella pneumoniae clinical isolate after 24 hrs by disc diffusion method; assay type: functional
Escherichia coli [18] = test: Antibacterial activity against Escherichia coli ATCC 25922 after 24 hrs by broth dilution technique; assay type: functional; conditions: ATCC-25922, 24 h

Structure (SMILES) | MFC (Candida albicans [1]) [µg/mL] | MIC (Candida albicans [1]) [µg/mL] | diameter of the inhibition zone (DIZ) (Talaromyces marneffei [2]) [mm] | MBC (Staphylococcus aureus [3]) [µg/mL] | MIC (Staphylococcus aureus [3]) [µg/mL] | MFC [4] [µg/mL] | MIC [4] [µg/mL] | diameter of the inhibition zone (DIZ) (Candida albicans [5]) [mm] | MFC (Aspergillus fumigatus [6]) [µg/mL] | MIC (Aspergillus fumigatus [6]) [µg/mL] | diameter of the inhibition zone (DIZ) (Escherichia coli [7]) [mm] | diameter of the inhibition zone (DIZ) (Aspergillus fumigatus [8]) [mm] | MBC (Pseudomonas aeruginosa [9]) [µg/mL] | MIC (Pseudomonas aeruginosa [9]) [µg/mL] | diameter of the inhibition zone (DIZ) [10] [mm] | MFC (Talaromyces marneffei [11]) [µg/mL] | MIC (Talaromyces marneffei [11]) [µg/mL] | MBC (Klebsiella pneumoniae [12]) [µg/mL] | MIC (Klebsiella pneumoniae [12]) [µg/mL] | MBC (Streptococcus pyogenes [13]) [µg/mL] | other results
CCCCCCCCCCCCCCCCCC(=O)N(C(=O)NC1CCCCC1)C1CCCCC1 | 50 (≈ 102 µM) | 25 (≈ 50.9 µM) | 10.5 | 100 (≈ 204 µM) | 50 (≈ 102 µM) | 100 (≈ 204 µM) | 50 (≈ 102 µM) | 15.1 | 100 (≈ 204 µM) | 50 (≈ 102 µM) | 13.3 | 13.6 | 100 (≈ 204 µM) | 25 (≈ 50.9 µM) | 12.2 | 100 (≈ 204 µM) | 50 (≈ 102 µM) | 100 (≈ 204 µM) | 100 (≈ 204 µM) | 100 (≈ 204 µM) | MIC (Streptococcus pyogenes [13]): 50 µg/mL (≈ 102 µM); diameter of the inhibition zone (DIZ) (Streptococcus pyogenes [14]): 11.5 mm; diameter of the inhibition zone (DIZ) (Staphylococcus aureus [15]): 11.3 mm; diameter of the inhibition zone (DIZ) (Pseudomonas aeruginosa [16]): 12.2 mm; diameter of the inhibition zone (DIZ) (Klebsiella pneumoniae [17]): 12.7 mm; MBC (Escherichia coli [18]): 100 µg/mL (≈ 204 µM); MIC (Escherichia coli [18]): 50 µg/mL (≈ 102 µM)
CCCCC/C=C\CC[C@H](O)CCCCCCCC(=O)N(C(=O)NC1CCCCC1)C1CCCCC1 | 12.5 (≈ 24.8 µM) | 12.5 (≈ 24.8 µM) | 13.8 | 50 (≈ 99 µM) | 25 (≈ 49.5 µM) | 25 (≈ 49.5 µM) | 12.5 (≈ 24.8 µM) | 24.2 | 25 (≈ 49.5 µM) | 12.5 (≈ 24.8 µM) | 23.4 | 21.2 | 100 (≈ 198 µM) | 25 (≈ 49.5 µM) | 18.3 | 25 (≈ 49.5 µM) | 12.5 (≈ 24.8 µM) | 100 (≈ 198 µM) | 25 (≈ 49.5 µM) | 25 (≈ 49.5 µM) | MIC (Streptococcus pyogenes [13]): 25 µg/mL (≈ 49.5 µM); diameter of the inhibition zone (DIZ) (Streptococcus pyogenes [14]): 20.8 mm; diameter of the inhibition zone (DIZ) (Staphylococcus aureus [15]): 19.5 mm; diameter of the inhibition zone (DIZ) (Pseudomonas aeruginosa [16]): 27.1 mm; diameter of the inhibition zone (DIZ) (Klebsiella pneumoniae [17]): 20.6 mm; MBC (Escherichia coli [18]): 100 µg/mL (≈ 198 µM); MIC (Escherichia coli [18]): 50 µg/mL (≈ 99 µM)
CCCCCCCCCCCCCCCC(=O)N(C(=O)NC1CCCCC1)C1CCCCC1 | 50 (≈ 108 µM) | 25 (≈ 54 µM) | 9.9 | 100 (≈ 216 µM) | 50 (≈ 108 µM) | 25 (≈ 54 µM) | 12.5 (≈ 27 µM) | 14.2 | 100 (≈ 216 µM) | 50 (≈ 108 µM) | 12.3 | 12.5 | 100 (≈ 216 µM) | 25 (≈ 54 µM) | 10.7 | 100 (≈ 216 µM) | 50 (≈ 108 µM) | 100 (≈ 216 µM) | 50 (≈ 108 µM) | 100 (≈ 216 µM) | MIC (Streptococcus pyogenes [13]): 50 µg/mL (≈ 108 µM); diameter of the inhibition zone (DIZ) (Streptococcus pyogenes [14]): 11.2 mm; diameter of the inhibition zone (DIZ) (Staphylococcus aureus [15]): 10.1 mm; diameter of the inhibition zone (DIZ) (Pseudomonas aeruginosa [16]): 14.9 mm; diameter of the inhibition zone (DIZ) (Klebsiella pneumoniae [17]): 10.7 mm; MBC (Escherichia coli [18]): 100 µg/mL (≈ 216 µM); MIC (Escherichia coli [18]): 50 µg/mL (≈ 108 µM)
CCCCCCCCCCCCCCCCCC(=O)Nc1ccccc1O | 25 (≈ 66.6 µM) | 12.5 (≈ 33.3 µM) | 10.2 | 100 (≈ 266 µM) | 100 (≈ 266 µM) | 100 (≈ 266 µM) | 50 (≈ 133 µM) | 14.7 | 50 (≈ 133 µM) | 25 (≈ 66.6 µM) | 12.4 | 12.4 | 100 (≈ 266 µM) | 100 (≈ 266 µM) | 10.5 | 100 (≈ 266 µM) | 50 (≈ 133 µM) | 100 (≈ 266 µM) | 50 (≈ 133 µM) | 100 (≈ 266 µM) | MIC (Streptococcus pyogenes [13]): 50 µg/mL (≈ 133 µM); diameter of the inhibition zone (DIZ) (Streptococcus pyogenes [14]): 10.8 mm; diameter of the inhibition zone (DIZ) (Staphylococcus aureus [15]): 10.5 mm; diameter of the inhibition zone (DIZ) (Pseudomonas aeruginosa [16]): 11.9 mm; diameter of the inhibition zone (DIZ) (Klebsiella pneumoniae [17]): 11.4 mm; MBC (Escherichia coli [18]): 100 µg/mL (≈ 266 µM); MIC (Escherichia coli [18]): 100 µg/mL (≈ 266 µM)
CCCCCCCCCCCCCCCC(=O)Nc1ccccc1O | 100 (≈ 288 µM) | 50 (≈ 144 µM) | 9.3 | 100 (≈ 288 µM) | 50 (≈ 144 µM) | 100 (≈ 288 µM) | 25 (≈ 71.9 µM) | 13.7 | 100 (≈ 288 µM) | 50 (≈ 144 µM) | 11.8 | 11.6 | 100 (≈ 288 µM) | 100 (≈ 288 µM) | 9.8 | 100 (≈ 288 µM) | 50 (≈ 144 µM) | 100 (≈ 288 µM) | 50 (≈ 144 µM) | 100 (≈ 288 µM) | MIC (Streptococcus pyogenes [13]): 50 µg/mL (≈ 144 µM); diameter of the inhibition zone (DIZ) (Streptococcus pyogenes [14]): 10.6 mm; diameter of the inhibition zone (DIZ) (Staphylococcus aureus [15]): 9.8 mm; diameter of the inhibition zone (DIZ) (Pseudomonas aeruginosa [16]): 11.5 mm; diameter of the inhibition zone (DIZ) (Klebsiella pneumoniae [17]): 10.5 mm; MBC (Escherichia coli [18]): 100 µg/mL (≈ 288 µM); MIC (Escherichia coli [18]): 100 µg/mL (≈ 288 µM)
CCCCC/C=C\CC[C@H](O)CCCCCCCC(=O)Nc1ccccc1O | 25 (≈ 64.2 µM) | 12.5 (≈ 32.1 µM) | 10.7 | 50 (≈ 128 µM) | 25 (≈ 64.2 µM) | 50 (≈ 128 µM) | 25 (≈ 64.2 µM) | 21.4 | 50 (≈ 128 µM) | 25 (≈ 64.2 µM) | 20.9 | 18.3 | 25 (≈ 64.2 µM) | 25 (≈ 64.2 µM) | 15.2 | 100 (≈ 257 µM) | 25 (≈ 64.2 µM) | 50 (≈ 128 µM) | 25 (≈ 64.2 µM) | 100 (≈ 257 µM) | MIC (Streptococcus pyogenes [13]): 50 µg/mL (≈ 128 µM); diameter of the inhibition zone (DIZ) (Streptococcus pyogenes [14]): 19.2 mm; diameter of the inhibition zone (DIZ) (Staphylococcus aureus [15]): 18.7 mm; diameter of the inhibition zone (DIZ) (Pseudomonas aeruginosa [16]): 23.4 mm; diameter of the inhibition zone (DIZ) (Klebsiella pneumoniae [17]): 17.8 mm; MBC (Escherichia coli [18]): 50 µg/mL (≈ 128 µM); MIC (Escherichia coli [18]): 25 µg/mL (≈ 64.2 µM)
